For assay [1], the system named is L4X variant (A156/157C) (RNA, riboswitch, internal amino modifier (N) for Cy5 between 25 and 26 of strand 2; strand 3 is a DNA tether) GCGGUGAAGAUAGAGGUGCGAACUUCAAGAGUAUGCCUUUGGAGAAAGAUGGAUUCUGUGAAAAAGGCUGAAAGGGGAGCGUCGCCGAAGCAAAUAAAACCCCAUCGGUAUUAUUUGCUGGCCGUGCAUUGCCUAAAUGUAAGGCUGUCAAGAAGCAUCGUUCAAGCGUUUUUUAUGCUUGGAAGAUAAGAA/CCGAUGCUUCUUGGAGGGCUAUCUUCACC
Kind of assay: smFRET histograms. Conditions: ligand-bound FRET state not formed even at high Mg2+ or lysine.

The test system of assay [2] is wild-type lysC aptamer (three-strand smFRET construct LMS/1-5V2/DNA-bi) (RNA, riboswitch, internal amino modifier (N) for Cy5 between 25 and 26 of strand 2; strand 3 is a DNA tether) GCGGUGAAGAUAGAGGUGCGAACUUCAAGAGUAUGCCUUUGGAGAAAGAUGGAUUCUGUGAAAAAGGCUGAAAGGGGAGCGUCGCCGAAGCAAAUAAAACCCCAUCGGUAUUAUUUGCUGGCCGUGCAUUGAAUAAAUGUAAGGCUGUCAAGAAGCAUCGUUCAAGCGUUUUUUAUGCUUGGAAGAUAAGAA/CCGAUGCUUCUUGGAGGGCUAUCUUCACC
Kind of assay: smFRET histograms. Conditions: Na+ in place of K+; ligand-bound FRET state not formed efficiently.

Assay [3] has the same test system. Kind of assay: smFRET kinetics, KD,fold x KD,bind. Conditions: 100 mM K+, 2 mM Mg2+; 50 mM Tris pH 7.8; apparent.
The test system of assay [4] is L2X variant (G72C-G76C) (RNA, riboswitch, internal amino modifier (N) for Cy5 between 25 and 26 of strand 2; strand 3 is a DNA tether) GCGGUGAAGAUAGAGGUGCGAACUUCAAGAGUAUGCCUUUGGAGAAACUACCAUUCUGUGAAAAAGGCUGAAAGGGGAGCGUCGCCGAAGCAAAUAAAACCCCAUCGGUAUUAUUUGCUGGCCGUGCAUUGAAUAAAUGUAAGGCUGUCAAGAAGCAUCGUUCAAGCGUUUUUUAUGCUUGGAAGAUAAGAA/CCGAUGCUUCUUGGAGGGCUAUCUUCACC
Kind of assay: smFRET histograms. Conditions: ligand-bound FRET state not formed even at high Mg2+ or lysine.

Assay [5] relates to wild-type lysC aptamer (three-strand smFRET construct LMS/1-5V2/DNA-bi) (RNA, riboswitch, internal amino modifier (N) for Cy5 between 25 and 26 of strand 2; strand 3 is a DNA tether) GCGGUGAAGAUAGAGGUGCGAACUUCAAGAGUAUGCCUUUGGAGAAAGAUGGAUUCUGUGAAAAAGGCUGAAAGGGGAGCGUCGCCGAAGCAAAUAAAACCCCAUCGGUAUUAUUUGCUGGCCGUGCAUUGAAUAAAUGUAAGGCUGUCAAGAAGCAUCGUUCAAGCGUUUUUUAUGCUUGGAAGAUAAGAA/CCGAUGCUUCUUGGAGGGCUAUCUUCACC
Kind of assay: smFRET histograms, global Hill fit of state occupancies. Conditions: 50 mM Tris pH 7.8.

Assay [6] concerns BPX variant (G39C) (RNA, riboswitch, internal amino modifier (N) for Cy5 between 25 and 26 of strand 2; strand 3 is a DNA tether) GCGGUGAAGAUAGACGUGCGAACUUCAAGAGUAUGCCUUUGGAGAAAGAUGGAUUCUGUGAAAAAGGCUGAAAGGGGAGCGUCGCCGAAGCAAAUAAAACCCCAUCGGUAUUAUUUGCUGGCCGUGCAUUGAAUAAAUGUAAGGCUGUCAAGAAGCAUCGUUCAAGCGUUUUUUAUGCUUGGAAGAUAAGAA/CCGAUGCUUCUUGGAGGGCUAUCUUCACC
Kind of assay: smFRET histograms. The note with it: ligand-bound FRET state not formed even at high Mg2+ or lysine.

From paper PMC6614840 (2019) come the findings set out here.

The term KD denotes the constant that tells how readily two partners part at equilibrium. High values mean weaker binding, low ones tighter binding. `NCCCC[C@H](N)C(=O)O`: the binding entry was “no” in assay [1], “weak” in assay [2], “no” in assay [4] and “no” in assay [6]. For the same compound, in assay [3], the “KD, app” value amounted to 11 ± 7 µM. Also, the KD in assay [5] (100 mM K+, 2 mM Mg2+, Figure 4 legend prints 4.5 ± 1 μM) came to 3 ± 1 µM; in assay [5] (no K+, 10 mM Mg2+, Hill coefficient 1.1 ± 0.2), 850 ± 35 µM.
